From US20130288991A1, “BLOCK COPOLYMERS FOR STABLE MICELLES” (Intezyne Technologies, Inc., priority 2012, published 2013) come the findings set out here.

In series [1] the test system is BxPC3 pancreatic (folate receptor −) cancer cells. Kind of series: In-vitro cytotoxicity of aminopterin formulations (cell titer-glo). It counts as cell-based. As to conditions: BxPC3, 72 hours. The procedure:
(§1) Cells originally purchased from ATCC (A549, Panc-1, OVCAR3, and BXPC-3) were seeded in 96 well tissue culture plates to be 50% confluent by 24 hours. Cells were incubated at 37° C. with 5.0% CO2. Cells were treated with escalading doses of free aminopterin, crosslinked aminopterin formulation, uncrosslinked aminopterin formulation, and non drug-loaded micelle formulations 24 hours after plate seeding. Free aminopterin was dissolved in DMSO and administered to cells with a total volume of DMSO equal to or less than 0.0025%. Micelle formulations were re-suspended in biology grade water. Dilutions were done in deep well plates with cell media and water or DMSO (for free aminopterin only) equalizing displaced volume. Incubation media was aspirated from the 96 well plates and 100 μl of each dilution was added to the wells in triplicate and incubated over 72 hours at 37° C. with 5.0% CO2. Crosslinked and uncrosslinked non drug-loaded micelle formulations were administered at the four highest doses and were calculated at comparative mg/ml concentrations to drug-loaded micelle concentrations of delivery vehicle. After 72-hour incubation, plates were allowed to cool to room temperature and 25 μl of cell titer-glo was added to each well. Plates were briefly shaken to mix and luminescence readings were read on a plate reader. Luminescence reading for triplicate doses are averaged and divided by average luminescence readings from untreated cells on the same plate to calculate the % of viable cells per dose.
(§2) The aminopterin loaded micelles from Example 119 and Example 121 were tested for cytotoxicity compared to free aminopterin and the crosslinked and uncrosslinked non drug-loaded micelle formulations (from polymer of Example 18) against A549 lung, OVCAR3 ovarian, PANC-1 (folate receptor +) pancreatic and BxPC3 (folate receptor −) pancreatic cancer cell lines. The cytotoxicity profiles for each treatment for each cell line in FIG. 14 (A549 Lung), FIG. 15 (OVCAR3 Ovarian), FIG. 16 (PANC-1 Pancreatic), and FIG. 17 (BxPC3 pancreatic). […] Treatment with both uncrosslinked and crosslinked non drug-loaded micelles was well tolerated, with greater than 80% viability for all cells tested.

Series [2] deals with PANC-1 pancreatic (folate receptor +) cancer cells. Described as above. It counts as cell-based. As to conditions: read-out: IC50 (cell viability inhibited by 50%); PANC-1, 72 hours. The procedure: as §1, §2
Series [3] concerns A549 lung cancer cells. The series is described as above. Particulars: read-out: IC50 (cell viability inhibited by 50%); A549, 72 hours. It counts as cell-based. The method, then:
as §1, §2

Series [4] concerns OVCAR3 ovarian cancer cells. The series is described as above. It counts as cell-based. Particulars: OVCAR3, 72 hours. The method, then: as §1, §2
The nature of series [5]: in vivo. As to conditions: Fisher, rat, iv, 5 mg/kg.
For series [6] the following is noted: Fisher, rat, in vivo, iv, 5 mg/kg.
Series [7] can be described thus: in vivo. On the set-up: species or system Fisher rats. Particulars: Fisher, rat, iv, 10 mg/kg. The procedure:
The delivery vehicle for drug administration was isotonic saline. […] Samples were analyzed on a Waters Alliance 2695 equiped with a 2475 fluorescence detector (Ex=470 nm; Em=580). A 5 μL sample injection was made onto a Waters 4 μm Nova Pak C18 (3.9×150 mm) at 30° C. with a flow rate of 0.750 mL per minute of 10 mM phosphate buffer (pH=1.4), methanol and acetonitrile (gradient from 70/10/20 to 40/10/50 for buffer/methanol/acetonitrile was made over eight minutes). Analyte eluted at 5.9 minutes under these conditions, was normalized to the internal standard, and quantitated using a standard curve comprised of seven standards.

The subject of series [8] is HCT-116 colon cancer cells. The experiment in a line: Anti-tumor efficacy of SN-38 micelles in HCT-116 xenograft model. It is filed as in vivo, mice. Particulars: irinotecan at 50 mg/kg, IV 3×QW.

SMILES strings stand for the structures.

Consider `Nc1nc(N)c2nc(CNc3ccc(C(=O)N[C@@H](CCC(=O)O)C(=O)O)cc3)cnc2n1` [Aminopterin, aminopterin], for which the “IC50 (cell viability inhibited by 50%)” value in series [1] and in series [4] was “no IC50 was obtained” in each case. The 50% inhibitory concentration (IC50) in series [2] and in series [3] was 7 to 25 nM in each case.
`CO[C@H]1C(=O)[C@]2(C)[C@@H](OC)C[C@H]3OC[C@@]3(OC(C)=O)[C@H]2[C@H](OC(=O)c2ccccc2)[C@]2(O)C[C@H](OC(=O)[C@H](O)[C@@H](NC(=O)OC(C)(C)C)c3ccccc3)C(C)=C1C2(C)C` [free cabizataxel, cabazitaxel] displayed a Cmax in series [5] of 1200 ng/mL. For the same compound, the “Exposure of cabazitaxel to the plasma compartment over 15 minutes” value in series [6] worked out at 200 ng·h/mL.
With `COc1cccc2c1C(=O)c1c(O)c3c(c(O)c1C2=O)C[C@@](O)(C(C)=O)C[C@@H]3O[C@H]1C[C@H](N)[C@H](O)[C@H](C)O1` [free daunorubicin, daunorubicin], in series [7], the AUC turned out to be 1300 ng·h/mL; the peak level (Cmax) was 3300 ng/mL; the “Half-life (terminal, elimination)” value is reported as 3.3 h. In series [7] (Half-life (terminal, elimination)), the half-life is 3.4 h.
As for `CCc1c2c(nc3ccc(OC(=O)N4CCC(N5CCCCC5)CC4)cc13)-c1cc3c(c(=O)n1C2)COC(=O)[C@]3(O)CC` [irinotecan], in series [8], the “Mean tumor growth rate” value came out at 18.9 mm^3 per day.

The IC50 is the midpoint of a concentration-inhibition curve. The Cmax is the peak of the concentration-time curve. Usually AUC stands for the area under the concentration-time curve, a measure of exposure. The low end stands for low exposure, the high end for high exposure. One may read the half-life as the time needed for the level to fall by half in the phase considered. A lower half-life goes with rapid decline.
